Paper PMC5338263, “GS-5734 and its parent nucleoside analog inhibit Filo-, Pneumo-, and Paramyxoviruses” (Scientific Reports, 2017)
Entries after “also recorded” stand apart in the source; their conditions may differ. Where two headings read alike, the source gives them in different places.

Legend:
[1] = test system: RVFV Rec. ZH501-GFP; test: microbe, parasite or virus in culture; format: cell-based, Rift Valley Fever virus
[2] = test system: VSV New Jersey; test: microbe, parasite or virus in culture; format: cell-based, Vesicular Stomatitis virus
[3] = test system: EBOV Rec. Makona-ZSG
[4] = test system: EBOV Makona
[5] = test system: MARV Rec. Bat371-GFP
[6] = test system: NiV Rec. M-Luc2AM
[7] = test system: NiV Rec. M-GFP2AM
[8] = test system: NiV M-1999
[9] = test system: hPIV3 Rec. JS-GFP
[10] = test system: reporter and wild-type filo-, pneumo-, and paramyxoviruses
[11] = test system: HCV; settings: cited from earlier work
[12] = test system: DenV; settings: cited from earlier work
[13] = test system: EBOV Rec. Mayinga-GFP (Ebola virus); test: in vitro; settings: human
[14] = test system: EBOV Rec. Mayinga-Gluc (Ebola virus); test: in vitro; settings: human
[15] = test system: EBOV Rec. Makona-ZSG (Ebola virus); test: in vitro; settings: human
[16] = test system: EBOV Makona (Ebola virus); test: in vitro; settings: human
[17] = test system: MARV Rec. Bat371-GFP (Marburg virus); test: in vitro; settings: human
[18] = test system: NiV Rec. M-Luc2AM (Nipah virus); test: in vitro; settings: human
[19] = test system: NiV Rec. M-GFP2AM (Nipah virus); test: in vitro; settings: human
[20] = test system: NiV M-1999 (Nipah virus); test: in vitro; settings: human
[21] = test system: hPIV3 Rec. JS-GFP (parainfluenza type 3 virus); test: in vitro; settings: human
[22] = test system: MV Rec. rMV^EZGFP(3) (Measles virus); test: in vitro; settings: human
[23] = test system: MuV IA 2006 (Mumps virus); test: in vitro; settings: human
[24] = test system: MARV Rec. Bat371-GFP; test: organism not typed; settings: Huh-7
[25] = test system: AHFV 200300001; test: organism not typed; settings: A549
[26] = test system: EBOV Rec. Mayinga-GFP; test: microbe, parasite or virus in culture; settings: Zaire ebolavirus, Huh-7
[27] = test system: EBOV Rec. Mayinga-Gluc; test: microbe, parasite or virus in culture; settings: Zaire ebolavirus, Huh-7
[28] = test system: EBOV Makona; test: microbe, parasite or virus in culture; settings: Zaire ebolavirus
[29] = test system: NiV Rec. M-Luc2AM; test: microbe, parasite or virus in culture; settings: Henipavirus nipahense, HeLa
[30] = test system: NiV Rec. M-GFP2AM; test: microbe, parasite or virus in culture; settings: Henipavirus nipahense, HeLa
[31] = test system: NiV M-1999; test: microbe, parasite or virus in culture; settings: Henipavirus nipahense
[32] = test system: NiV B-2004; test: microbe, parasite or virus in culture; settings: Henipavirus nipahense
[33] = test system: hPIV3 Rec. JS-GFP; test: microbe, parasite or virus in culture; settings: Human respirovirus 3, HeLa
[34] = test system: MV Rec. rMV^EZGFP(3); test: microbe, parasite or virus in culture; settings: Measles morbillivirus, HeLa
[35] = test system: RSV Rec. rgRSV224 (A2); test: microbe, parasite or virus in culture; settings: human respiratory syncytial virus, HeLa
[36] = test system: LASV Josiah; test: microbe, parasite or virus in culture; settings: Mammarenavirus lassaense, Huh-7
[37] = test system: KFDV P9605; test: microbe, parasite or virus in culture; settings: Kyasanur Forest disease virus, A549
[38] = test system: TBEV Hypr; test: microbe, parasite or virus in culture; settings: Tick-borne encephalitis virus, A549
[39] = test system: OHFV Bogoluvovska; test: microbe, parasite or virus in culture; settings: Omsk hemorrhagic fever virus, A549
[40] = Cell viability assay (CellTiter-Glo 2.0), Huh7; settings: human, uninfected Huh7 cells
[41] = Vesicular stomatitis virus, HeLa
[42] = not tested in this paper, no reference given

With `CCC(CC)COC(=O)[C@H](C)N[P@](=O)(OC[C@H]1O[C@@](C#N)(c2ccc3c(N)ncnn23)[C@H](O)[C@@H]1O)Oc1ccccc1` [GS-5734] the EC50 [1] was “minimal to no antiviral activity; also recorded: No inhibition”, the EC50 ([1]; Rift Valley fever virus, Huh-7) was over 10000 nM and the EC50 [2] was “not inhibited; also recorded: No inhibition”. The EC50 [2, 41] was over 10000 nM, the EC50 [3] was 14 nM and the EC50 [4] was 3 nM. For the same compound, the “reduction in virus yield” value [4] was “greater than 4”, the EC50 [5] was 14 nM and the EC50 [6] was 45 nM. For the same compound, the EC50 [7] was 29 nM, the “reduction in virus yield” value [8] was “greater than 4” and the EC50 [9] was 18 nM. The “EC50 lower than the 50% cytotoxic concentrations” value [10] was at least 150 fold, the “higher antiviral potency relative to Nuc” value [10] was 10 to 100 fold and the inhibition of virus [11, 42] was “inhibited”. The inhibition of virus [12, 42] was “inhibited”, the selectivity ratio [13] was 151 and the selectivity ratio [14] was 476. It also gave a selectivity ratio [15] of 714, a selectivity ratio [16] of 666 and a selectivity ratio [17] of 714. The selectivity ratio [18] was 184, the selectivity ratio [19] was 286 and the selectivity ratio [20] was 180. It also gave a selectivity ratio [21] of 461, a selectivity ratio [22] of 224 and a selectivity ratio [23] of 10. For the same compound, the EC50 [24] was 13.9 ± 0.3 nM, the EC90 [24] was 47 nM and the EC50 [25] was 4150 ± 480 nM. The EC90 [25] was 17600 nM, the EC50 [26] was 66 nM and the EC90 [26] was 203 nM. For the same compound, the EC50 [27] was 20.7 nM, the EC90 [27] was 53 nM and the EC50 ([28]; Macrophage) was 3.4 nM. For the same compound, the EC90 ([28]; Macrophage) was 19 nM, the EC50 [29] was 44.9 ± 1.8 nM and the EC90 [29] was 126 nM. It also gave an EC50 [30] of 28.7 nM, an EC90 [30] of 53 nM and an EC50 [31] of 47 nM. For the same compound, the EC90 [31] was 83 nM, the EC50 [32] was 32.4 ± 2.7 nM and the EC90 [32] was 106 nM. For the same compound, the EC50 [33] was 17.7 ± 3.7 nM, the EC90 [33] was 350 nM and the EC50 [34] was 36.5 ± 28 nM. For the same compound, the EC90 [34] was 73 nM, the EC50 [35] was 21.1 ± 1.1 nM and the EC90 [35] was 59 nM. The EC50 [36] was 4490 ± 480 nM, the EC90 [36] was 5100 nM and the EC90 [37] was 3400 nM. It also gave an EC90 [38] of 3500 nM, an EC90 [39] of 3900 nM and a CC50 at 72 h [40] of over 10000 nM.
With `N#C[C@@]1(c2ccc3c(N)ncnn23)O[C@H](CO)[C@@H](O)[C@H]1O` [Nuc] the EC50 [1] was “little to no antiviral activity; also recorded: No inhibition”, the EC50 ([1]; Rift Valley fever virus, Huh-7) was over 50000 nM and the EC50 [2] was “little to no antiviral activity; also recorded: No inhibition”. The EC50 [2, 41] was over 50000 nM, the EC50 [3] was 1300 nM and the EC50 [4] was 1000 nM. The “reduction in virus yield” value [4] was “greater than 5”, the EC50 [5] was 1900 nM and the EC50 [6] was 1500 nM. The EC50 [7] was 2200 nM, the “reduction in virus yield” value [8] was “greater than 5” and the EC50 [9] was 510 nM. The “EC50 lower than the 50% cytotoxic concentrations” value [10] was “at least 16 fold”, the “antiviral activity (active or not)” value [11] was “active” and the “antiviral activity (active or not)” value ([11]; listed as GS-441524) was “shown to have activity”. For the same compound, the “antiviral activity (active or not)” value [12] was “active”, the “antiviral activity (active or not)” value ([12]; listed as GS-441524) was “shown to have activity” and the selectivity ratio [13] was 31. The selectivity ratio [14] was 16, the selectivity ratio [15] was 38 and the selectivity ratio [16] was 50. The selectivity ratio [17] was 26, the selectivity ratio [18] was 33 and the selectivity ratio [19] was 22. For the same compound, the selectivity ratio [20] was 102, the selectivity ratio [21] was 98 and the selectivity ratio [22] was 50. For the same compound, the selectivity ratio [23] was 5, the EC50 [24] was 1860 ± 130 nM and the EC90 [24] was 4600 nM. It also gave an EC50 [25] of 49900 ± 2060 nM, an EC90 [25] of over 150000 nM and an EC50 [26] of 1610 ± 120 nM. The EC90 [26] was 6700 nM, the EC50 [27] was 3100 nM and the EC90 [27] was 11000 nM. For the same compound, the EC50 ([28]; Huh-7) was 1020 nM, the EC90 ([28]; Huh-7) was 2500 nM and the EC50 [29] was 1570 ± 780 nM. It also gave an EC90 [29] of 5700 nM, an EC50 [30] of 2230 ± 1400 nM and an EC90 [30] of 4000 nM. For the same compound, the EC90 ([31]; HeLa) was 1400 nM, the EC50 [32] was 2460 nM and the EC50 [33] was 520 ± 80 nM. The EC90 [33] was 1000 nM, the EC50 [34] was 990 ± 360 nM and the EC90 [34] was 2600 nM. It also gave an EC50 [35] of 630 nM, an EC90 [35] of 2200 nM and an EC50 [36] of over 50000 nM. The EC50 [37] was 46300 nM, the EC90 [37] was over 350000 nM and the EC50 [38] was 51200 nM. The EC90 [38] was over 150000 nM, the EC50 [39] was 50600 nM and the EC90 [39] was over 350000 nM. The CC50 at 72 h [40] was over 50000 nM.
